Assay results taken from paper PMC6130489, “Caffeic acid methyl and ethyl esters exert potential antidiabetic effects on glucose and lipid metabolism in cultured murine insulin-sensitive cells through mechanisms implicating activation of AMPK” (Pharmaceutical Biology, 2017).

Tests used:
G6Pase = target: T1, G6Pase (Rattus norvegicus, UniProt P43428); experiment: Enzymatic activity of G6Pase in H4IIE cells; format: cell-based; conditions: at 100 μM, relative to DMSO
T1 sequence (P43428 1-357): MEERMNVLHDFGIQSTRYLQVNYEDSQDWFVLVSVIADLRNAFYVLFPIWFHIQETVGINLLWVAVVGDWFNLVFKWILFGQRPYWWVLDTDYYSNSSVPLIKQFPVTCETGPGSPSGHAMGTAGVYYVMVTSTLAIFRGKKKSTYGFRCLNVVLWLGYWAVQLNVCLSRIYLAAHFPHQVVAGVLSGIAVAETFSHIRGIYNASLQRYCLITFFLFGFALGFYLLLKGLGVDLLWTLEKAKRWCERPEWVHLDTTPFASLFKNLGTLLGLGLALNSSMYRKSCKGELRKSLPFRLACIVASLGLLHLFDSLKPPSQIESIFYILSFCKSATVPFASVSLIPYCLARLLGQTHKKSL
Description: At 90% confluence, H4-IIE cells were treated with 12.5, 25, 50 and 100 μM of either CAME or CAEE in serum free medium. Vehicle (0.1% DMSO)-treated and 100 nM insulin-treated cells served as the negative and positive control respectively. The activity of G6Pase was assessed by measuring the rate of glucose production in the presence of a non-limiting amount of glucose-6-phosphate (G6P) as described elsewhere (Nachar et al. [2013]). Total glucose production was measured using a commercial glucose assay kit (AutoKit Glucose; Wako Diagnostics, Richmond, VA). Protein content was measured using bicinchoninic acid (BCA) assay (Simpson [2008]) and G6Pase activity was expressed in relation to protein content.
Figure 2. CAME and CAEE inhibit G6Pase by mechanisms involving activation of AMPK. (A) H4IIE hepatocytes were treated for 16 h with several concentrations (12.5, 25, 50 and100 μM) of either CAME or CAEE and G6Pase activity was determined colorimetrically using a commercial glucose assay kit as described under Materials and Methods. Data are expressed relative to vehicle control (0.1% DMSO, 0% inhibition). Insulin (100 nM) applied for similar treatment period served as the positive control. (B and C) Cells were treated with the optimal nontoxic concentration of either CAME, CAEE (50 μM each), or DMSO (0.1%) for 18 h, insulin (100 nM), AICAR (1 mM) applied for 30 min served as the positive controls. (B) The upper blot was probed with anti-phospho-AMPK antibody (Thr 172) and the lower blot was probed with anti-pan AMPK. (C) Blots were probed with antibodies against phospho-Akt (Ser 473) or pan-Akt. Immunoblots are representative of three independent experiments with similar results. (D) Data are expressed as phospho-AMPK/pan-AMPK and are given as mean ± SEM from 3 experiments. *p < 0.05 indicates a significant difference, **(p < 0.01), ***(p < 0.001) from the vehicle control group.

Akt = experiment: Western immunoblot phospho-Akt in H4IIE cells; format: cell-based, rat; conditions: 50 μM, 18 h
Description: L6 cells myotubes, H4IIE cells and 3T3-L1 adipocytes were treated with either CAME, CAEE (50 μM each) or vehicle (DMSO) for 18 h. Insulin (100 nM) or aminoimidazole carboxamide ribonucleotide (AICAR; 1 mM) were added to some vehicle-treated wells 30 min prior to the end of the treatment and served as the positives controls. Protein content was assayed by the bicinchoninic acid method (Thermo Scientific Pierce Protein Research, Rockford, IL) standardized to bovine serum albumin. Western immunoblotting was performed as described elsewhere (Eid et al. [2010]). […] Immunoreactive bands were visualized by enhanced chemiluminescence and quantified by the Scion Image program (Scion Corporation, Frederick, MD). […]
Figure 2. […] (A) H4IIE hepatocytes were treated for 16 h with several concentrations (12.5, 25, 50 and100 μM) of either CAME or CAEE and G6Pase activity was determined colorimetrically using a commercial glucose assay kit as described under Materials and Methods. […] (D) Data are expressed as phospho-AMPK/pan-AMPK and are given as mean ± SEM from 3 experiments. *p < 0.05 indicates a significant difference, **(p < 0.01), ***(p < 0.001) from the vehicle control group.

3T3-L1 adipocytes = experiment: Adipogenesis assay (AdipoRed lipid accumulation); format: cell-based; conditions: Mus musculus, 192 h, 3T3-L1, day 8 of differentiation; for IC50: read-out: adipogenesis inhibition IC50
Description: Starting from day 0 of differentiation, 3T3-L1 adipocytes were separately treated with different concentrations of either CAME or CAEE (12.5, 25, 50 and 100 μM). Cells treated with vehicle (0.1% DMSO) in proliferation and differentiation media were used as negative controls. The adipogenic compound rosiglitazone (5 μM) was added to some vehicle-treated wells and served as the positive control. At day 8 after initiation of differentiation, intracellular lipid accumulation was quantified as previously described using AdipoRed Reagent according to the manufacturer’s protocol (Martineau et al. [2010]).
Figure 3. (A and B) Anti-adipogenic effect of CAME and CAEE in 3T3-L1 adipocytes. Cells were treated with several concentrations (12.5, 25, 50 and100 μM) of either CAME or CAEE in DMEM containing 10% FBS and the standard adipogenic cocktail (500 μM 3-isobutyl-1-methylxanthine, 500 nM insulin and 10 μM dexamethasone) for 2 days then in DMEM containing 10% FBS and 500 nM insulin starting from days 2-8 of differentiation. This medium was changed every 2 days. (A) On day 8, lipid content was measured by AdipoRed assay. Results represent the means ± SEM of three independent experiments. *Indicates a significant (p ≤ 0.05) difference, **(p < 0.01), ***(p < 0.001) from the vehicle control group. […] Vehicle-treated cells show the presence of lipid droplets. On the other hand, cells treated with the maximum nontoxic concentration (100 μM) of either CAME or CAEE retained the fibroblast-like morphology of pre-adipocytes and were devoid of lipid droplets. (C) CAME and CAEE inhibit pre-adipocyte clonal expansion. Confluent 3T3-L1 pre-adipocytes undergoing clonal expansion in response to differentiation cues were treated with vehicle or 12.5, 25, 50 and 100 μM of either CAME or CAEE for 20 h and incorporation of ^3H-labeled thymidine was measured. Normalized data are presented as mean ± SEM of three independent experiments. **Indicates a significant (p ≤ 0.01) difference, ***(p < 0.001) from the vehicle control group.

C2C12 cells [1] = tested on: C2C12 cells; design: method as in Eid et al. [2010]; conditions: cultured C2C12 cells; ref Eid et al. [2010]; cited from earlier work
C2C12 cells [2] = tested on: C2C12 cells; design: method as in Eid et al. [2010]; conditions: cultured C2C12 cells; ref Eid et al. [2010]; cited from earlier work; remark: listed apart in the source

Compound	inhibition at 100 µM (G6Pase) [%]	phosphorylation of Akt (Akt)	IC50 (3T3-L1 adipocytes) [µM]	inhibition at 100 µM (3T3-L1 adipocytes) [%]	glucose uptake (C2C12 cells [1])	toxicity (C2C12 cells [2])
COC(=O)/C=C/c1ccc(O)c(O)c1 [CAME, CA methyl ester]	62 ± 6.9	did not increase	13.8	83.3 ± 7.2	potently enhanced glucose uptake	no or little toxicity
CCOC(=O)/C=C/c1ccc(O)c(O)c1 [CAEE, caffeic acid ethyl ester]	62.7 ± 6	did not increase	12.9	97.3 ± 3	potently enhanced glucose uptake	no or little toxicity
